Source: ChEMBL document CHEMBL1159147, “4-(2-PYRTOYL)-5-phenylthiazoles as novel non-bicyclic reversible inhibitors of the gastric H+/K+-atpase” (Bioorg Med Chem Lett, 1995)
One block for each compound: values may come before it.

What was measured:
[1] = test system: CCCc1nc(-c2cc(N)ccn2)c(-c2ccccc2C)s1; test: Vmax was determined
[2] = test system: CCCc1nc(-c2cc(N)ccn2)c(-c2ccccc2C)s1; test: Km was determined
[3] = biological target: Potassium-transporting ATPase alpha chain 1 (Sus scrofa) (UniProt P19156); test: Ability to inhibit H+/K+ stimulated ATPase activity in lympholised gastric vesicles at 100 uM concentration; type: tissue-based; conditions: Stomach
[4] = biological target: Potassium-transporting ATPase alpha chain 1 (Sus scrofa) (UniProt P19156); test: Ability to inhibit H+/K+ stimulated ATPase activity in lympholised gastric vesicles at 30 uM concentration; type: tissue-based; conditions: Stomach
Rattus norvegicus = test: Compound was tested in vivo for its ability to inhibit pentagastrin-stimulated gastric acid secretion in the anesthetized lumen perfused rat at 10 umol/kg iv; insoluble; type: functional, organism-based; conditions: Stomach

Chain of Potassium-transporting ATPase alpha chain 1 (Sus scrofa) (P19156 whole entry, the tested form may be a part): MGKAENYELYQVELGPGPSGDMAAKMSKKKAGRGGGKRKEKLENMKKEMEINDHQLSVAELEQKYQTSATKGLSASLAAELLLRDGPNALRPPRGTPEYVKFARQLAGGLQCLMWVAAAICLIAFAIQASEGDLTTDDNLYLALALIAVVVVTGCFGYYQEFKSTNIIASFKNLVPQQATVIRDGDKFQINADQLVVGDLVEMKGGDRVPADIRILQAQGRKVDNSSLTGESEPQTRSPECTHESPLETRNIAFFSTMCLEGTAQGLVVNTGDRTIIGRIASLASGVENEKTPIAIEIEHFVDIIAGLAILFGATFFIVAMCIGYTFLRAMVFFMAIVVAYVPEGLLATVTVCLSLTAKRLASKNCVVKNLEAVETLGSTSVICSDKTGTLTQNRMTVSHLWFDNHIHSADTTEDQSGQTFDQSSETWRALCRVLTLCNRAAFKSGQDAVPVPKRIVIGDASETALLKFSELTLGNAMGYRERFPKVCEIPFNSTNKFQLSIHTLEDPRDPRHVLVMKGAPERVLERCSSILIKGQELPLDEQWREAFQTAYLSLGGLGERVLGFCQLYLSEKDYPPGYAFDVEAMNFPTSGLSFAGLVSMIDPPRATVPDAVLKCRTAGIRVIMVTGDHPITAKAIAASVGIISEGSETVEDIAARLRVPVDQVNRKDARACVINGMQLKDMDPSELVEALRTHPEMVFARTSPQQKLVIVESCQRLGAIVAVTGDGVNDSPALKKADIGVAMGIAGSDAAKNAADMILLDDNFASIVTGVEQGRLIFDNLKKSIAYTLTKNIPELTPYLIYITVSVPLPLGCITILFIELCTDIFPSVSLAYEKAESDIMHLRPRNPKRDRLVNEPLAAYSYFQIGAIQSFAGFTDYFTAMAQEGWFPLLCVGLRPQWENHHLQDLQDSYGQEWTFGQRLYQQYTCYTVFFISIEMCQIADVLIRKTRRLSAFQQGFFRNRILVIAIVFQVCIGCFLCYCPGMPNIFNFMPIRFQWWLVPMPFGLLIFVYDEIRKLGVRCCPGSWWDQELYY
Chain of Potassium-transporting ATPase alpha chain 1 (Sus scrofa), P19156 (P19156 whole entry): as the sequence (P19156 whole entry, the tested form may be a part) above

Compound: Potassium-transporting ATPase alpha chain 1 (Sus scrofa), P19156
Vmax [1]: 0.636 IU mg-1
Km [2]: 560 µM

inhibition [3]: 48%
Compound: Cc1nc(-c2ccccn2)c(-c2ccccc2C)s1

inhibition [4]: 23%
Compound: CCCc1ncc(-c2ccccc2C)c(-c2ccccn2)n1

inhibition [3]: 67%
Compound: CCCc1nc(-c2ccccc2C)c(-c2ccccn2)[nH]1

Compound: Cc1ccccc1-c1nc(-c2ccccn2)c(-c2ccccc2C)s1
inhibition (Rattus norvegicus): Insoluble
